For series [1], the target named is pig alpha-2-delta receptor 1 (A2DR1) (Sus scrofa, UniProt A0A287BIN3). The series is described as follows: [3H]Gabapentin scintillant proximity A2DR1 binding assay (A2DR1 SPA, Biological Method 5). To be noted: displacement of [3H]-gabapentin. The procedure:
(§1) Recombinant HEK 293 cells expressing pig A2DR1 and A2DR2 subunits were grown under normal cell culture conditions (RPMI-1640 media with 10% FBS, 200 μg G418, and 1% penicillin/streptomycin 1t 37° C. with 5% CO2) until reaching confluency in T-75 flasks, at which time they were harvested. The harvested cells were suspended in ice-cold 5 mM Tris/5 mM ethylenediaminetetraacetic acid (“EDTA”) buffer, pH 7.4 (“TE buffer”) containing phenylmethylsulfonyl fluoride (“PMSF”) (0.1 mM) and Roche Complete Protease Inhibitor Cocktail, and allowed to sit on ice for 30 minutes. The cells were broken by sonication using 20 bursts, 40-50 cycles, and then centrifuged at 3000×g for 10 minutes. The resulting supernatant was transferred to a new tube and centrifuged at 50,000×g for 30 minutes. The resulting pellet was resuspended in 10 mM HEPES buffer, pH 7.4, homogenized, and stored at—80° C. The A2DR1 or A2DR2 membrane protein concentration was determined by the Pierce BCA method using bovine serum albumin (“BSA”) as the standard.
(§2) The [^3H]gabapentin SPA binding assay was performed in Costar 3632 96-well, clear bottom assay plates using Wheatgerm agglutinin beads (Amersham Pharmacia Biotech). Pig A2DR1 or A2DR2 membranes (10-20 μg protein per well) prepared above in Step (1) and SPA beads (0.5 mg per well) were mixed with 30 nM [^3H]gabapentin (52 Ci/mmol; Amersham Pharmacia Biotech) in 10 mM HEPES/10 mM MgSO4 assay buffer, pH 7.4 using KOH. The final well volume was 200 μL and non-specific binding was determined in the presence of 10 μM unlabeled pregabalin. The final mixture containing A2DR1 or A2DR2 membrane protein incubated with SPA beads, test compounds, and [^3H]gabapentin was incubated at room temperature for 15-24 hours, and the plates were then counted on a Wallace Trilux 1450 Microbeta scintillation counter. Step (3): Determination of IC50 values
(§3) Curve fitting and IC50 values were calculated using a four-parameter, non-linear regression equation from GraphPad Prism 3.0 software, while Ki values were determined using the equation of Chang and Prussoff.
For orientation: Loss of bound radioactivity is the signal in a displacement assay; it reports binding, not function.

In series [2] the target is pig alpha-2-delta receptor 2 (A2DR2) (UniProt A0A8W4FF87). The series is described as follows: [3H]Gabapentin scintillant proximity A2DR2 binding assay (A2DR2 SPA, Biological Method 5). The settings on record: displacement of [3H]-gabapentin. As to the method:
as §1, §2, §3

The test system of series [3] is MIA Rat (monosodium iodoacetate-induced osteoarthritis, right knee joint). Put plainly: Monosodium iodoacetate-induced osteoarthritis in rat model of joint cartilage damage (MIA Rat). Type of series: in vivo. The source says:
One end result of the induction of osteoarthritis in this model, as determined by histologic analysis, is the development of an osteoarthritic condition within the affected joint, as characterized by the loss of Toluidine blue staining and formation of osteophytes. Associated with the histologic changes is a concentration-dependent degradation of joint cartilage, as evidenced by affects on hind-paw weight distribution of the limb containing the affected joint, the presence of increased amounts of proteoglycan or hydroxyproline in the joint upon biochemical analysis, or histopathological analysis of the osteoarthritic lesions.
The invention compounds typically are not effective for relieving joint pain when administered in an acute model, such as the instant MIA Rat model, which has a duration of just 14 or 28 days.
Generally, In the MIA Rat model on Day 0, the hind-paw weight differential between the right arthritic joint and the left healthy joint of male Wistar rats (150 g) are determined with an incapacitance tester, model 2KG (Linton Instrumentation, Norfolk, United Kingdom). The incapacitance tester has a chamber on top with an outwardly sloping front wall that supports a rat's front limbs, and two weight sensing pads, one for each hind paw, that facilitates this determination. Then the rats are anesthetized with isofluorine, and the right, hind leg knee joint is injected with 1.0 mg of mono-iodoacetate (“MIA”) through the infrapatellar ligament. Injection of MIA into the joint results in the inhibition of glycolysis and eventual death of surrounding chondrocytes. The rats are further administered either an invention compound or vehicle (in the instant case, water) daily for 14 days or 28 days.
The invention compound is typically administered at a dose of 30 mg of per kilogram of rat per day (30 mg/kg/day), but may be administered at other doses such as, for example, 10 mg/kg/day, 60 mg/kg/day, 90-mg/kg/day, or 100 mg/kg/day according to the requirements of the invention compound being studied. It is well within the level of ordinary skill in the pharmaceutical arts to determine a proper dosage of an invention compound in this model.
Administration of an invention compound in this model is optionally by oral administration or by intravenous administration via an osmotic pump. After 7 and 14 days for a two week study, or 7, 14, and 28 days for a four week study, the hind-paw weight distribution is again determined. Typically, the animals administered vehicle alone place greater weight on their unaffected left hind paw than on their right hind paw, while animals administered an invention compound show a more normal (i.e., more like a healthy animal) weight distribution between their hind paws. This change in weight distribution was proportional to the degree of joint cartilage damage. Percent inhibition of a change in hind paw joint function is calculated as the percent change in hind-paw weight distribution for treated animals versus control animals. For example, for a two week study, [formula] wherein: ΔWC is the hind-paw weight differential between the healthy left limb and the arthritic limb of the control animal administered vehicle alone, as measured on Day 14; and • ΔWG is the hind-paw weight differential between the healthy left limb and the arthritic limb of the animal administered an invention compound as measured on Day 14.
In order to measure biochemical or histopathological end points in the MIA Rat model, some of the animals in the above study may be sacrificed, and the amounts of free proteoglycan in both the osteoarthritic right knee joint and the contralateral left knee joint may be determined by biochemical analysis. The amount of free proteoglycan in the contralateral left knee joint provides a baseline value for the amount of free proteoglycan in a healthy joint. […]

The nature of series [4]: Drug plasma half-life assay (DPH-LA) and bioavailability in rat. Type of series: in vivo. To be noted: male. The procedure:
Three fasted male Sprague-Dawley rats are dosed by intravenous infusion via cannula over 5 minutes of 3 mg/kg of invention compound in 1.0 mL saline solution, and the cannulas were each rinsed with 1.0 mL saline solution immediately following infusion. Animals are fed at 4 hours post dose. Blood samples are collected by conventional means in tubes containing ethylenediaminetetraacetic acid (“EDTA”) at Times 0 (predose), 0.083 (end of infusion), 0.25, 0.5, 1, 2, 4, 6, 8, 12, and 24 hours post dose. Plasma is separated from the blood and stored frozen until analyzed by conventional high performance liquid chromatography, whereby 5.0 ng/mL was the lower limit of quantitation.
Three fasted male Wistar rats are dosed by oral gavage with optionally 5 mg/kg, 30 mg/kg, or 300 mg/kg of invention compound. Animals are fed at 4 hours post dose. Blood samples are collected by conventional means in tubes containing EDTA at Times 0 (predose), 0.5, 1, 2, 4, 6, 8, 12, and 24 hours post dose. Plasma is separated from the blood and stored frozen until analyzed.
Mean plasma half-life was determined by thawing and assaying the plasma samples using high performance liquid chromatography by conventional means. A concentration of test compound of 5.0 ng/mL was the lower limit of quantitation.
Plasma half-life was calculated as the time in hours by conventional means. Drug quantitation is done by comparison to standard samples containing known amounts of test compound.
Mean bioavailability for test compound was determined by calculating area under the concentration-time curve (“AUC”) Extrap using conventional methods.

Read-outs that look alike come from different tables or passages of the source.

Sequence of pig alpha-2-delta receptor 1 (A2DR1) (A0A287BIN3 1-1109): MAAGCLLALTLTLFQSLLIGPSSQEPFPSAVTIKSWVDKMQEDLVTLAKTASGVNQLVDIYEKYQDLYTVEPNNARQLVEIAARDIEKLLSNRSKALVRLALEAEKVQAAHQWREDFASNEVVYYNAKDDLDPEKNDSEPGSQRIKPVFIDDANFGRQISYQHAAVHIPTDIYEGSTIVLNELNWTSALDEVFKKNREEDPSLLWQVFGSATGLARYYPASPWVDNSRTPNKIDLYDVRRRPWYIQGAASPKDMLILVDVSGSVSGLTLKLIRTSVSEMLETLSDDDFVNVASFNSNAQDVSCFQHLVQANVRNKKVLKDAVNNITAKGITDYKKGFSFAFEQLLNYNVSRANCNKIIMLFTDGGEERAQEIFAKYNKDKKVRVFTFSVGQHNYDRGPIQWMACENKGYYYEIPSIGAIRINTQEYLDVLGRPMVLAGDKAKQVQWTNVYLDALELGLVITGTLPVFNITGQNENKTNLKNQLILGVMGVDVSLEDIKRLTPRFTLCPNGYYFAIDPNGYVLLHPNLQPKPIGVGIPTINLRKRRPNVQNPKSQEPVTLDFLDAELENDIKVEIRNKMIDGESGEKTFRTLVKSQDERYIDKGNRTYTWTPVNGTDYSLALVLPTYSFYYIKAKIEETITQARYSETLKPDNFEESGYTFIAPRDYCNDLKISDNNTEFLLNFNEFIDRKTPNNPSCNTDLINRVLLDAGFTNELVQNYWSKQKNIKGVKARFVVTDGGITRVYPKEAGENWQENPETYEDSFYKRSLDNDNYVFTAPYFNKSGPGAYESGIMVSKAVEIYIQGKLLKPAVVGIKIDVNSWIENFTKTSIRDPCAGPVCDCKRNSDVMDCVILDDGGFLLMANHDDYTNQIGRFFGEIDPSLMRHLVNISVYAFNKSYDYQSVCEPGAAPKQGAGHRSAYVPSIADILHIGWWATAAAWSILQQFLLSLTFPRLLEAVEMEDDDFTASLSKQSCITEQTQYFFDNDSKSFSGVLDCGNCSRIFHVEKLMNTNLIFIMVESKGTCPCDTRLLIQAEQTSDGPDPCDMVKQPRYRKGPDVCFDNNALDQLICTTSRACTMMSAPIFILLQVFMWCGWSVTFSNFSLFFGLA

Regarding `CCN1[C@H](C(=O)O)C[C@@H]2CCCC[C@@H]21` [Example A3], the IC50 in series [1] and in series [2] was no less than 10 µM throughout.

In the case of `CS(=O)(=O)NC(=O)[C@@H]1C[C@@H]2CCCC[C@@H]2N1` [Example E1], the IC50 in series [1] and in series [2] was no less than 10 µM in each case.

For the compound `CN1[C@H](C(=O)O)C[C@@H]2CCCC[C@@H]21` [[2(S),3a(S),7a(S)]-1-methyl-2,3,3a,4,5,6,7,7a-octahydroindole-2-carboxylic acid], the “degree of structural damage to the cartilage” value in series [3] (30 mg/kg and 10 mg/kg doses, PO BID, 4 weeks post-MIA) was “significantly decreased”. Also, the cartilage erosion severity entry in series [3] (30-mg/kg and 10-mg/kg doses, PO BID, MIA rat) is on record as “significantly decrease”. In series [3] (PO BID, MIA rat), the “joint function limitations (differential hind-limb weight bearing)” value is given as “decrease joint function limitations”. Further, in series [3] (all doses (3 to 30 mg/kg PO BID), 4 weeks post-MIA), the joint pain entry is given as “significantly decreased”.

Regarding `CC(C)(C)C1CCC2NC(C(=O)O)CC2C1` (centres unmarked) [Example O8], the IC50 in series [1] and in series [2] was no less than 10 µM each time.

As for `O=C(O)[C@@H]1C[C@@H]2CCCC[C@@H]2N1` [OHI2CA, (2S,3aS,7aS)-octahydroindole-2-carboxylic acid, reference compound], the IC50 (in general, the point on the concentration scale where inhibition reaches its midpoint) in series [1] is 0.11 µM; in series [2] it was 0.6 µM. Also, the half-life in series [4] (Sprague-Dawley, rat plasma, IV, 3 mg/kg, read-out: Mean T1/2 (converted)) is 4.01 h; in series [4] (Wistar, plasma, po, administered orally, rat (footnote of Table 2), read-out: half-life), 4 h; in series [4] (Wistar, rat plasma, PO, 5 mg/kg, read-out: Mean T1/2 (converted)) it was 3.78 h. In addition, the bioavailability (as a rule, the share of a dose that reaches the circulation, judged against a reference dose that is usually intravenous) in series [4] (Wistar, plasma, po, administered orally, rat (footnote of Table 2), read-out: bioavailability) was found to be 72%; in series [4] (Wistar, plasma, rat, PO, 5 mg/kg, read-out: Mean Bioavailability), 72%.

With `CN(C)CC(C)(C)COC(=O)C1C[C@@H]2CCCC[C@@H]2N1` (some centres unmarked) [Example Y1], the IC50 is 0.29 µM in series [1] and 1.4 µM in series [2].

Regarding `CN1[C@H](C(=O)O)C[C@@H]2CCCC[C@@H]21.Cl` [A1], the bioavailability in series [4] (Wistar, in vivo, po, administered orally, rat (footnote of Table 2), read-out: bioavailability) worked out at 63%. For the same compound, the half-life in series [4] (Wistar, rat, in vivo, po, administered orally, rat (footnote of Table 2), read-out: half-life) worked out at 10 h.

As to `CN1[C@H](C(=O)O)C[C@@H]2CCCC[C@@H]21.Cl` [Example A1], the “% I @ 30 mg/kg BID (%) (± SEM): inhibition of loss of hind limb joint function in MIA at Day 14” value in series [3] (30 mg/kg BID oral, 2-week MIA study, Day 14, rat) stood at 59 ± 17%. The IC50 in series [1] and in series [2] was no less than 10 µM throughout. Also, in series [4] (Wistar, in vivo, rat, PO, 30 mg/kg, read-out: Mean Bioavailability), the bioavailability stood at 63%. Moreover, the half-life in series [4] (Wistar, rat, in vivo, po, 30 mg/kg, rat plasma, PO, 30 mg/kg, read-out: Mean T1/2 (converted)) was 25.3 h; in series [4] (Wistar, rat, in vivo, po, 300 mg/kg, rat plasma, PO, 300 mg/kg, read-out: Mean T1/2 (converted)), 11.1 h.

In the case of `O=c1[nH]c([C@@H]2C[C@@H]3CCCC[C@@H]3N2)no1` [F1], in series [3] (via Alzet osmotic pump (footnote 3), Day 14, rat), the “% I (%) (± SEM): inhibition of loss of hind limb joint function in MIA at Day 14” value is “(ii) 59 ± 9^3%”.

In the case of `COCCN1[C@H](C(=O)O)C[C@@H]2CCCC[C@@H]21` [Example A7], the IC50 in series [1] and in series [2] was no less than 10 µM throughout.

With `CCC1CCC2CC(C(=O)O)NC2C1` (centres unmarked) [Example O1], the half-maximal inhibitory concentration (IC50) is 1.3 µM in series [1] and 4.5 µM in series [2].

As for `O=C(O)[C@]12C[C@H]1[C@@H]1CCCC[C@@H]1N2` [Example Q1], the IC50 in series [1] is 2.6 µM; in series [2] it was no less than 10 µM.

For `CC(C)CN1[C@H](C(=O)O)C[C@@H]2CCCC[C@@H]21` [Example A6], the IC50 in series [1] and in series [2] was no less than 10 µM throughout.

Consider `CCCN1[C@H](C(=O)O)C[C@@H]2CCCC[C@@H]21` [Example A5], for which the IC50 in series [1] and in series [2] was no less than 10 µM in each case.

Regarding `O=C(O)C1CC2C(CCCC2C(F)(F)F)N1` (centres unmarked) [Example O10], in series [3] (10 mg/kg/day via osmotic pump, 2-week MIA study, Day 14, rat), the “% I @ 10 mg/kg/day (%) (± SEM): inhibition of loss of hind limb joint function in MIA at Day 14” value is 0%. For the same compound, the IC50 in series [1] and in series [2] was no less than 10 µM each time.
